Where two headings read alike, the source gives them in different places.
How the values were obtained:
[1] = HL-60 cell growth and viability; assay type: cell-based, human; details: human, hl-60 cells, 24 h; for viability at 24 h, 2.5 µM: 2.5 μM sphinganine; for viability at 24 h, 5 µM: 5 μM sphinganine
Procedure: (§1) The HL-60 cells (obtained from the American Type Culture Collection, ATCC CCL240) were grown at 37° as a suspension culture in 175 cm^2 Nunc tissue culture flasks (Vangard International, Neptune, N.J.). The cells were subcultured at a density of 0.25×10^6 cells/ml and used between passage numbers 30 and 40.
(§2) Cells were centrifuged at 600 g for 3 min, and added at 1×10^5 cells per well in 12-well culture dishes. Medium, PMA, and long-chain bases (prepared as the 1:1 molar complex with fatty acid-free bovine serum albumin) at the indicated concentrations were added for a total volume of 2.0 ml. After the desired times, the cells in suspension were counted and checked for viability (trypan blue exclusion) with a hemacytometer. The attached cells were quantitated by measuring DNA content according to the method of West et al (Anal. Biochem., 147, 289-295, 1985) and by assaying for acid phosphatase according to the method of Schnyder (J. Exp. Med., 148, 434-445, 1978).

HL-60 cells [2] = experiment: HL-60 cell growth and viability; assay type: cell-based, human
Procedure: as §1, §2

HL-60 cells [3] = experiment: Acid phosphatase activities of suspended and attached HL-60 cells; assay type: cell-based, human
Procedure: as §2

human neutrophils = experiment: [32P]-phosphate incorporation into TCA-precipitable material of neutrophils; assay type: cell-based
Procedure: Neutrophils (1.4×10^8 cells) were preincubated in with 0.5 mCi Na2 H^32 PO4 in buffer containing […] NaCl, 5.56 mM glucose, 10 mM Hepes, and 0.33 mM CaCl2 for a total of 1 hr at 37° C. in a shaking waterbath. Excess unbound counts were removed by centrifugation and resuspension, repeated five times. The cells were then divided into 4 treatment groups (see RESULTS below) containing approximately 3.5×10^7 cells each. All groups were incubated at 37° C. in a shaking waterbath for the same total time. Some samples were incubated 10 min. with sphinganine (40 μM) prior to addition of 1 μM PMA (final concentration), with which they were incubated for an additional 15 min. The reaction was stopped by addition of an equal volume of boiling SDS dissociation buffer (9% SDS, 1% mercaptoethanol, 15% glycerol, 30 mM Tris, pH 7.8). The samples were run on a 12% SDS-polyacrylamide gel using the method of Rudolph and Krueger (Adv. Cyclic Nucleotide Res. 101, 107-133, 1979). The gels were dried using a Bio-Rad model 2400 Gel Slab Dryer. Autoradiography was performed on the dried gels using Kodak X-omat X-ray film and Dupont Cronex intensifying screens. The gels were exposed for 12 hrs at -70° C.
Alternatively, neutrophils were preincubated as described above using 0.1 mCi of ^32 P labeled phosphate. The cells were broken by 5 min. of sonication using an Ultramet III waterbath sonicator, and 5% (final concentration) trichloroacetic acid was added to each sample. […] The precipitate was filtered and washed extensively using an Amicon filtration system and counted using a Beckman LS7000 scintillation counter.

[4] = 8 nM PMA, read-out: Percent viability of suspended cells
[5] = No PMA, read-out: Percent viability of suspended cells
[6] = 8 nM PMA, 1 μM sphinganine, 24 h
[7] = 8 nM PMA, 1 μM sphinganine, 72 h
[8] = 8 nM PMA, 2.5 μM sphinganine, 24 h
[9] = 8 nM PMA, 2.5 μM sphinganine, 72 h
[10] = 8 nM PMA, 5 μM sphinganine, 24 h
[11] = 8 nM PMA, 5 μM sphinganine, 72 h
[12] = No PMA, 2.5 μM sphinganine, 24 h
[13] = No PMA, 2.5 μM sphinganine, 72 h

CCCCCCCCCCCCCCC[C@@H](O)[C@@H](N)CO (relative stereo) [Sphinganine, erythro-dihydrosphingosine]
viability at 24 h, 1 µM ([1]; 8 nM PMA + 1 μM sphinganine, read-out: % Viability): 93%
viability at 24 h, 1 µM ([1]; 8 nM PMA, 1 μM sphinganine, read-out: Percent viability of suspended cells): 87%
viability at 24 h, 2.5 µM [1, 4]: 94%
viability at 24 h, 5 µM [1, 4]: 80%
viability at 24 h, 1 µM ([1]; 1 μM sphinganine, no PMA, read-out: % Viability): 95%
viability at 24 h, 1 µM ([1]; No PMA, 1 μM sphinganine, read-out: Percent viability of suspended cells): 90%
viability at 24 h, 2.5 µM [1, 5]: 98%
viability at 24 h, 5 µM [1, 5]: 87%
HL-60 cell growth (doubling) (HL-60 cells [2]; 1 μM sphinganine, first 24 h): not changed
HL-60 cytotoxicity (HL-60 cells [2]; 5 μM sphinganine, second day): significant cell death
HL-60 cell growth (HL-60 cells [2]; 1 and 2.5 μM sphinganine, second day): inhibited growth without cytotoxicity
HL-60 cell growth (HL-60 cells [2]; 2.5 and 5 μM sphinganine, first 24 h): limited growth
Acid phosphatase activity, Adherent (HL-60 cells [3]; [6]): 0.44 ± 0.11 nmol/h/dish
Acid phosphatase activity, Suspended (HL-60 cells [3]; [6]): 0.22 ± 0.07 nmol/h/dish
Adherence (% of total) (HL-60 cells [3]; [6]): 67 % of total
Acid phosphatase activity, Adherent (HL-60 cells [3]; [7]): 2.95 ± 0.62 nmol/h/dish
Acid phosphatase activity, Adherent (%) (HL-60 cells [3]; [7]): 98%
Acid phosphatase activity, Suspended (HL-60 cells [3]; [7]): 0.05 ± 0.01 nmol/h/dish
Acid phosphatase activity, Adherent (HL-60 cells [3]; [8]): 0.30 ± 0.04 nmol/h/dish
Acid phosphatase activity, Suspended (HL-60 cells [3]; [8]): 0.49 ± 0.28 nmol/h/dish
Adherence (% of total) (HL-60 cells [3]; [8]): 38 % of total
Acid phosphatase activity, Adherent (HL-60 cells [3]; [9]): 3.10 ± 0.30 nmol/h/dish
Acid phosphatase activity, Adherent (%) (HL-60 cells [3]; [9]): 98%
Acid phosphatase activity, Suspended (HL-60 cells [3]; [9]): 0.06 nmol/h/dish
Acid phosphatase activity, Adherent (HL-60 cells [3]; [10]): 0.14 ± 0.04 nmol/h/dish
Adherence (% of total) (HL-60 cells [3]; [10]): 21 % of total
Acid phosphatase activity, Adherent (HL-60 cells [3]; [11]): 0.82 ± 0.38 nmol/h/dish
Acid phosphatase activity, Adherent (%) (HL-60 cells [3]; [11]): 87%
Acid phosphatase activity, Suspended (HL-60 cells [3]; [11]): 0.12 ± 0.08 nmol/h/dish
Acid phosphatase activity, Adherent (HL-60 cells [3]; No PMA, 1 μM sphinganine, 24 h): 0.06 ± 0.03 nmol/h/dish
Acid phosphatase activity, Suspended (HL-60 cells [3]; No PMA, 1 μM sphinganine, 24 h): 1.53 ± 0.01 nmol/h/dish
Adherence (% of total) (HL-60 cells [3]; No PMA, 1 μM sphinganine, 24 h): 4 % of total
Acid phosphatase activity, Adherent (HL-60 cells [3]; No PMA, 1 μM sphinganine, 72 h): 0.05 ± 0.03 nmol/h/dish
Acid phosphatase activity, Adherent (%) (HL-60 cells [3]; No PMA, 1 μM sphinganine, 72 h): 2%
Acid phosphatase activity, Suspended (HL-60 cells [3]; No PMA, 1 μM sphinganine, 72 h): 2.77 ± 0.25 nmol/h/dish
Acid phosphatase activity, Adherent (HL-60 cells [3]; [12]): 0.06 ± 0.02 nmol/h/dish
Acid phosphatase activity, Suspended (HL-60 cells [3]; [12]): 1.25 ± 0.16 nmol/h/dish
Adherence (% of total) (HL-60 cells [3]; [12]): 5 % of total
Acid phosphatase activity, Adherent (HL-60 cells [3]; [13]): 0.05 ± 0.02 nmol/h/dish
Acid phosphatase activity, Adherent (%) (HL-60 cells [3]; [13]): 2%
Acid phosphatase activity, Suspended (HL-60 cells [3]; [13]): 2.35 ± 0.11 nmol/h/dish
Acid phosphatase activity, Adherent (HL-60 cells [3]; No PMA, 5 μM sphinganine, 24 h): 0.04 ± 0.01 nmol/h/dish
Acid phosphatase activity, Suspended (HL-60 cells [3]; No PMA, 5 μM sphinganine, 24 h): 0.91 ± 0.16 nmol/h/dish
Adherence (% of total) (HL-60 cells [3]; No PMA, 5 μM sphinganine, 24 h): 4 % of total
Acid phosphatase activity, Adherent (HL-60 cells [3]; No PMA, 5 μM sphinganine, 72 h): 0.04 ± 0.01 nmol/h/dish
Acid phosphatase activity, Adherent (%) (HL-60 cells [3]; No PMA, 5 μM sphinganine, 72 h): 14%
Acid phosphatase activity, Suspended (HL-60 cells [3]; No PMA, 5 μM sphinganine, 72 h): 0.24 ± 0.01 nmol/h/dish
[32P]-phosphate incorporation into TCA-precipitable material (human neutrophils; PMA (1 μM) plus Sa (25 μM)): 2845 COUNTS PER MINUTE
[32P]-phosphate incorporation into TCA-precipitable material (human neutrophils; Sa (25 μM)): 2506 COUNTS PER MINUTE
